Reference: patent publication US20140315797A1, “Novel N-Terminally Modified Insulin Derivatives” (priority 2010, published 2014)
Starred links: 1 amine or outer side, 2 acyl side, 3 side chain; linkers in the order of their positions; H or OH if unused. Positions of bridges follow the written chain, without caps; N, C: chain ends. Groups on a side chain read outwards from the residue. Chains are numbered I, II in the order given. No end group written: not given here. *: point of attachment. Phe(Nα-CONH2) = NC(=O)N[C@@H](Cc1ccccc1)C(=O)*; C20 diacid = O=C(O)CCCCCCCCCCCCCCCCCCC(=O)*; C18 diacid = O=C(O)CCCCCCCCCCCCCCCCC(=O)*; C16 diacid = O=C(O)CCCCCCCCCCCCCCC(=O)*; NMe2Phe = CN(C)[C@@H](Cc1ccccc1)C(=O)*; γGlu = O=C(O)[C@H](CCC(=O)[*:2])N[*:1]; Hydantoyl = NC(=O)NCC(=O)*; AEEA = NCCOCCOCC(=O)O; Me2Gly = CN(C)CC(=O)*

Tests used:
[1] = tested on: duodenum lumen enzymes; assay: Degradation of insulin analogs using duodenum lumen enzymes; conditions: degradation half time divided by that of reference insulin; rat duodenum enzymes, pH 7.4, 37° C.
Experimental: Degradation of insulin analogs using duodenum lumen enzymes (prepared by filtration of duodenum lumen content) from SPD rats. The assay is performed by a robot in a 96 well plate (2 ml) with 16 wells available for insulin analogs and standards. Insulin analogs ˜15 μM are incubated with duodenum enzymes in 100 mM Hepes, pH=7.4 at 37° C., samples are taken after 1, 15, 30, 60, 120 and 240 min and reaction quenched by addition of TFA. Intact insulin analogs at each point are determined by RP-HPLC. Degradation half time is determined by exponential fitting of the data and normalized to half time determined for the reference insulins, A14E, B25H, desB30 human insulin or human insulin in each assay. The amount of enzymes added for the degradation is such that the half time for degradation of the reference insulin is between 60 min and 180 min.

[2] = tested on: primary rat adipocytes; assay: Lipogenesis in rat adipocytes; assay type: cell-based; conditions: relative potency vs human insulin, unit %
Experimental: As a measure of in vitro potency of the insulins of the invention, lipogenesis can be used.
Primary rat adipocytes are isolated from the epididymale fat pads and incubated with 3H-glucose in buffer containing e.g. 0.1% fat free HSA and either standard (human insulin, HI) or insulin of the invention. The labelled glucose is converted into extractable lipids in a dose dependent way, resulting in full dose response curves.

[3] = target: T1, human insulin receptor (IR-A) (Homo sapiens, UniProt P06213); conditions: relative to affinity of human insulin; […] HSA in binding buffer
Experimental: (§1) The affinity of the acylated insulin analogues of this invention for the human insulin receptor is determined by a SPA assay (Scintillation Proximity Assay) microtiterplate antibody capture assay. SPA-PVT antibody-binding beads, anti-mouse reagent (Amersham Biosciences, Cat No. PRNQ0017) are mixed with 25 ml of binding buffer (100 mM HEPES pH 7.8; 100 mM sodium chloride, 10 mM MgSO4, 0.025% Tween-20). Reagent mix for a single Packard Optiplate (Packard No. 6005190) is composed of 2.4 μl of a 1:5000 diluted purified recombinant human insulin receptor (either with or without exon 11), an amount of a stock solution of A14Tyr[^125I]-human insulin corresponding to 5000 cpm per 100 μl of reagent mix, 12 μl of a 1:1000 dilution of F12 antibody, 3 ml of SPA-beads and binding buffer to a total of 12 ml. A total of 100 μl reagent mix is then added to each well in the Packard Optiplate and a dilution series of the insulin derivative is made in the Optiplate from appropriate samples. The samples are then incubated for 16 hours while gently shaken. The phases are the then separated by centrifugation for 1 min and the plates counted in a Topcounter. The binding data were fitted using the nonlinear regression algorithm in the GraphPad Prism 2.01 (GraphPad Software, San Diego, Calif.) and affinities are expressed relative (in percentage (%)) to the affinity of human insulin.
A related assay is also used wherein the binding buffer also contains 1.5% HSA in order to mimic physiological conditions

[4] = Hydrophobicity by isocratic reverse phase HPLC (k'rel); assay type: physicochemical; conditions: human insulin = 1, RP-HPLC pH 7.3
Experimental: The elution time of the insulin derivative is compared to that of human insulin (herein designated HI) or another derivative with a known hydrophibicity under the same conditions. The hydrophobicity, k′rel, is calculated as: k′relderiv=((tderiv−t0)/(tref−t0))*k′relref. Using HI as reference: k′relref=k′relHI=1. The void time of the HPLC system, t0, is determined by injecting 5 μl of 0.1 mM NaNO3. Running conditions:
Column: Lichrosorb RP-C18, 5 μm, 4×250 mm
Buffer A: 0.1 M natrium phosphate pH 7.3, 10 vol % CH3CN
After running an initial gradient, the isocratic level for running the derivative and reference (for example HI) is chosen, and the elution times of the derivative and reference under isocratic conditions are used in the above equation to calculate k′relderiv.

[5] = Chemical stability of insulin analogues formulated in lipid formulations (UPLC purity, SEC HMWP); assay type: physicochemical; conditions: lipid formulation, 4 weeks, 30° C.
Experimental: Chemical stability of insulin analogues formulated in lipid formulations was assessed according to the protocol described here.
Composition of the formulation: […]
Insulin to be tested (75 μM)
The insulin to be tested (lyophilised from pH 7.5) is dissolved in propylenglycol in the dark for 16 hours. Diglycerol caprylate is added ad the mixture is stirred. Tween 20 is added and the mixture is stirred for 5 minutes. The mixture is gently agitated until it is homogeneous.
Extraction-mix: 1-butanol+0.1% (w/w) Tween80, 0.1M Na2HPO4/NaH2PO4 pH 7.0 • 1. The formulations are allowed to reach room temperature. • 2. To each Eppendorf tube 20 μl of the formulations are added. • 3. Add 490 μl 1-butanol followed by addition of 990 μl of the phosphate buffer. Vortex and incubate at RT for 30 min. • 4. Vortex again and centrifuge at RT at 14000 rpm for 20 min. Analyse the bottom aqueous phase for purity and HMWP formation.
Alternatively another extraction method can be used: • 1. The formulations are allowed to reach room temperature. • 2. To each Eppendorf tube 50 μl of the formulations are added. • 3. Add 950 μl of extraction buffer. Vortex well. Immediately after, load 800 μl (2×400 μl) for purification on the spin column. See spin protocol below. Ion Exchange on Q Spin Columns from Sartorius
(In the following all spin steps are for 5 min at 2000×g.) • 1. Apply 400 μl equilibration buffer to each spin column, and spin. Discard the flow-through. • 2. Apply 2×400 μl of each extracted sample. Spin the column between each application. Discard the flow-through. • 3. Apply 400 μl washing buffer to wash each spin column, and spin. Discard the wash. • 4. Apply 400 μl elution buffer to each spin column, and spin. Analyse the elution for purity and HMWP formation
Column: Waters BEH Shield RP18 UPLC column (2.1×100 mm, 1.7 μm)
Buffer A: 0.09M di-ammonium hydrogen phosphate pH 3.0, 10% (v/v) acetonitrile
Buffer B: 90% acetonitrile.
Column: Waters Insulin HMWP SEC column
Buffer: 500 mM NaCl, 10 mM NaH2PO4, 5 mM H3PO4, 50% (v/v) 2-propanol

[6] = target: T1, human insulin receptor (IR-A); assay: Insulin receptor affinity, SPA antibody capture assay, 0% HSA; assay type: binding; conditions: relative to affinity of human insulin
Experimental: as §1

T1 sequence (P06213 28-746 isoform P06213-2 limits assumed): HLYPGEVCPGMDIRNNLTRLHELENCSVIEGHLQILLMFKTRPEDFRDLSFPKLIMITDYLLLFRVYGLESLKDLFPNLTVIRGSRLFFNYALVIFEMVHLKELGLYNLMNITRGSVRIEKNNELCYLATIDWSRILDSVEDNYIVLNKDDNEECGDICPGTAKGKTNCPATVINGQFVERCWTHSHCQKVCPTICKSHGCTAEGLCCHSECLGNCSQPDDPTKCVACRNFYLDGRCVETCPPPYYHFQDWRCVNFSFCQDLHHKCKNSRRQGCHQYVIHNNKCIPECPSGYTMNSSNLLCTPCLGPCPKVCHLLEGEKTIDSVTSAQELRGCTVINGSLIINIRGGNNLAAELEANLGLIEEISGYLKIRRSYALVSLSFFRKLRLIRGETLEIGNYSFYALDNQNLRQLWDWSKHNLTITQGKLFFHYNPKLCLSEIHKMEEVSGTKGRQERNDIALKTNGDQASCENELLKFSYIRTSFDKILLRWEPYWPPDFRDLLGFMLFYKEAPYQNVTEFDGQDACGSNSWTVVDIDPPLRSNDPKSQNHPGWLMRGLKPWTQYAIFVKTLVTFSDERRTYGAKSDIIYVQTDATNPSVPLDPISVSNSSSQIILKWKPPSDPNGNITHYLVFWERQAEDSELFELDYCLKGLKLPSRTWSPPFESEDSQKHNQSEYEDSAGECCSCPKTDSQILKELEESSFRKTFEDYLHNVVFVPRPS
T1 sequence (P06213 763-1382 partner limits assumed): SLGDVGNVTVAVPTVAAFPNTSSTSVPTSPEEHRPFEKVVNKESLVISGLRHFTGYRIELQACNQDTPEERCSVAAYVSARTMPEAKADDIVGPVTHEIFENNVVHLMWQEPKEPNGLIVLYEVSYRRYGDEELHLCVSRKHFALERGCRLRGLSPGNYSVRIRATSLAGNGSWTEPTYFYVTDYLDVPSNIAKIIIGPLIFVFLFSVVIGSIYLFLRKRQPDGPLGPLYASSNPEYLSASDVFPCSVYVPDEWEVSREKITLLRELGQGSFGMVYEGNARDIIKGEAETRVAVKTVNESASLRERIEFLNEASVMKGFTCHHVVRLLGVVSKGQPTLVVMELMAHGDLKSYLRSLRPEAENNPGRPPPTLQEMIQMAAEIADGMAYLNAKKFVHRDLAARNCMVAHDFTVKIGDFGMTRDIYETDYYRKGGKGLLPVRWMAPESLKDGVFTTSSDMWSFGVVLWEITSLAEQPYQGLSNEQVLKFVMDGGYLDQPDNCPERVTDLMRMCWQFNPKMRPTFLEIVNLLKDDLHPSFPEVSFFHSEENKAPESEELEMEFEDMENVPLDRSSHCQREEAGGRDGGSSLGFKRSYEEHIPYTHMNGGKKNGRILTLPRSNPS

Row | Substance | Duodenum degradation. Relative stability vs. A14E, B25H, desB30 human insulin [1] | Lipogenesis in rat adipocytres (@ 0.1% HSA) rel. to human insulin [2] [%] | Relative IR-A affinity (@ […] HSA) (%)e [3] [%] | Hydrophobicity rel. to human insulin [4] | HMWP formed (%) 4 weeks [5] [%] | Impurities formed (%) 4 weeks [5] [%] | Relative IR-A affinity (@ 0% HSA) (%) [6] [%]
1 | I: {Phe(Nα-CONH2)}-VNQHLCGSHLVEALHLVCGERGFFYPK([AEEA-AEEA-γGlu-C20 diacid]) / II: Hydantoyl-IVEQCCTSICSLEQLENYCN (disulfide I:6-II:6, I:18-II:19, II:5-II:10) [Example 22] | 7.7 | – | – | – | – | – | –
2 | I: {Phe(Nα-CONH2)}-VNQHLCGSHLVEALYLVCGERGFHYTPK([AEEA-AEEA-γGlu-C18 diacid]) / II: Hydantoyl-IVEQCCTSICSLEQLENYCN (disulfide I:6-II:6, I:18-II:19, II:5-II:10) [Example 12, A1(N^αCarbamoyl), A14E, B1(N^αCarbamoyl), B25H, B29K(N^εoctadecanedioyl-gGlu-2xOEG), desB30 human insulin] | 1.5 | 0.02 | 0.06 | 0.15 | 0.2 | 4.4 | 0.3
3 | I: {Phe(Nα-CONH2)}-VNQHLCGSHLVEALYLVCGERGFHYTPK([AEEA-AEEA-γGlu-C20 diacid]) / II: Hydantoyl-IVEQCCTSICSLEQLENYCN (disulfide I:6-II:6, I:18-II:19, II:5-II:10) [Example 15, A1(N^αCarbamoyl), A14E, B1(N^αCarbamoyl), B25H, B29K(N^εeicosanedioyl-gGlu-2xOEG), desB30 human insulin] | 0.6 | – | 0.02 | – | – | – | 0.2
4 | I: {Phe(Nα-CONH2)}-VNQHLCGSHLVEALYLVCGERGFHYPK([AEEA-AEEA-γGlu-C20 diacid]) / II: Hydantoyl-IVEQCCTSICSLEQLENYCN (disulfide I:6-II:6, I:18-II:19, II:5-II:10) [Example 28, A1G(N^αcarbamoyl), A14E, B1F(N^αcarbamoyl), B25H, desB27, B29K(N^εeicosanedioyl-gGlu-2xOEG), desB30 human insulin] | 2.1 | – | 0.25 | – | – | – | 0.7
5 | I: {Phe(Nα-CONH2)}-VNQHLCGSHLVEALHLVCGERGFHYTPK([AEEA-AEEA-γGlu-C20 diacid]) / II: Hydantoyl-IVEQCCTSICSLEQLENYCN (disulfide I:6-II:6, I:18-II:19, II:5-II:10) [Example 16, A1(N^α-Carbamoyl), A14E, B1(N^α-Carbamoyl), B16H, B25H, B29K(N^εeicosanedioyl-gGlu-2xOEG), desB30 human insulin] | 0.4 | – | 0.01 | – | – | – | 0.1
6 | I: NMe2Phe-VNQHLCGSHLVEALHLVCGERGFHYTPK([γGlu-C16 diacid]) / II: Me2Gly-IVEQCCTSICSLEQLENYCN (disulfide I:6-II:6, I:18-II:19, II:5-II:10) [Example 3, A1(N^α,N^α-Dimethyl), A14E, B1(N^α, N^α-dimethyl), B16H, B25H, B29K(N^εhexadecanedioyl-gGlu), desB30 human insulin] | 3.1 | – | 0.06 | – | – | – | 0.6
7 | I: NMe2Phe-VNQHLCGSHLVEALYLVCGERGFHYTPK([AEEA-AEEA-γGlu-C18 diacid]) / II: Me2Gly-IVEQCCTSICSLEQLENYCN (disulfide I:6-II:6, I:18-II:19, II:5-II:10) [Example 1, A1(N^α, N^α-Dimethyl), A14E, B1(N^α, N^α-dimethyl), B25H, B29K(N^εoctadecanedioyl-gGlu-2xOEG), desB30 human insulin] | 1.2 | 0.10 | 0.09 | 0.38 | 0.4 | 9.8 | 1.5
8 | A1(N,N-Dimethyl), A14E, B1(N,N-dimethyl), desB27, B29K(N^εoctadecanedioyl-gGlu-2xOEG), desB30 human insulin [Example 6] | – | 0.60 | 0.98 | – | – | – | 17.0
9 | A1G(N^α, N^α-Dimethyl), A14E, B1F(N(alpha), N(N^α, N^α-dimethyl), B25H, desB27, B29K(N^εhexadecanedioyl-gGlu-2xOEG), desB30 human insulin [Example 9] | 9.2 | 1.34 | 0.33 | 0.10 | – | – | 2.5
